Source: patent US9745349B2, “Cyclic peptide and pharmaceutical product containing same” (JAPAN SCIENCE AND TECHNOLOGY AGENCY, priority 2012, dated 2017)

Target: O-acyl isopeptide of Aβ (Homo sapiens, UniProt P05067)
Assay: Aβ aggregation inhibition test (thioflavin T fluorescence)
Type: biochemical
Conditions: inhibitor 30 μM, Aβ O-acyl isopeptide 10 μM, 0.1 M phosphate buffer pH 7.4, 1% DMSO, 37° C.; DMSO control taken as 100
Method: An aggregation inhibitory peptide solution (DMSO solution) was added to a 0.1 M phosphate buffer (pH 7.4, 50 μL) containing O-acyl isopeptide of Aβ (10 μM) (final concentration of inhibitor: 30 μM, 1% DMSO), and the resultant mixture was incubated at 37° C. for a specific period of time. Thereafter, a portion of the reaction mixture (10 μL) was added to a mixture of thioflavin T solution (50 μM thioflavin T, 10 μL) and 50 mM glycine-NaOH buffer (pH 8.5, 396 μL). Immediately thereafter, they were mixed together, and the fluorescence intensity of thioflavin T was measured at an excitation wavelength of 440 nm and an emission wavelength of 480 nm.

Chain of O-acyl isopeptide of Aβ (P05067 672-713 limits assumed): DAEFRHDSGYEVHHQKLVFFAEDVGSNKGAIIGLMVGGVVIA

Substance | Aggregation inhibitory activity ratio (the lower the ratio, the higher the inhibitory activity)
cyclo-D-[Ala-Leu-Val-Phe-Phe] (ALVFF; HELM PEPTIDE1{[dA].[dL].[dV].[dF].[dF]}$PEPTIDE1,PEPTIDE1,1:R1-5:R2$$$V2.0; SMILES CC(C)C[C@H]1NC(=O)[C@@H](C)NC(=O)[C@@H](Cc2ccccc2)NC(=O)[C@@H](Cc2ccccc2)NC(=O)[C@@H](C(C)C)NC1=O) [Compound 3] | 66
cyclo-D-[Lys-Ala-Val-Phe-Phe] [Compound 4] | 88
cyclo-D-[Lys-Leu-Ala-Phe-Phe] [Compound 5] | 82
cyclo-D-[Lys-Leu-Val-(4-(2-Py)-Ph)Ala-Phe] [Compound 13] | 81
cyclo-D-[Lys-Leu-Val-(4-(3-Py)-Ph)Ala-Phe] [Compound 14] | 49
cyclo-D-[Lys-Leu-Val-(4-(3-phenol)-Ph)Ala-Phe] [Compound 17] | 39
cyclo-D-[Lys-Leu-Val-(4-(4-Py)-Ph)Ala-Phe] [Compound 15] | 57
cyclo-D-[Lys-Leu-Val-(4-(5-pyrimidine)-Ph)Ala-Phe] [Compound 16] | 90
cyclo-D-[Lys-Leu-Val-Ala-Phe] [Compound 6] | 106
cyclo-D-[Lys-Leu-Val-Phe(βPh)-Phe] [Compound 8] | 28
cyclo-D-[Lys-Leu-Val-Phe-Ala] [Compound 7] | 104
